This note sets out measurements from publication PMC9144445, “Substrate-Based Design of Cytosolic Nucleotidase IIIB Inhibitors and Structural Insights into Inhibition Mechanism” (Pharmaceuticals, 2022).

Assay [1] has as its target human cN-IIIA (Homo sapiens, UniProt Q9H0P0). The assay is described as follows: IC50 determination for cN-IIIA (MGP assay). Particulars: for IC50: m7GMP 100 µM, cN-IIIA 40 nM, 25 min, MGP assay. The format is biochemical. Here is the method:
To determine the inhibitory potency towards cN-IIIA, compounds were evaluated using the MGP assay in an analogous way as described above for cN-IIIB.
All experiments were performed in triplicate.

For assay [2], the target named is mouse eIF4E (Mus musculus, UniProt P63073). The assay is described as follows: eIF4E competition binding assay with pyrene-labelled fluorescent probe. The conditions noted are these: for EC50: mouse eIF4E 400 nM, pyrene-labelled probe 75 nM.
Assay [3] deals with endogenous cN-IIIB, m^7GMP dephosphorylation in cytoplasmic HEK 293T cell extracts. In words: m7GMP decay in HEK 293T cell extract in presence of inhibitors (LC–MS/MS). The format is biochemical, human. Particulars: compound 100 µM, [2H]-m7GMP 4 µM, 37 °C, up to 60 min. The protocol:
The expression of cN-IIIB was verified by Western blot and was the most abundant in HEK 293T among four tested cell lines (Figure 9A). The cN-IIIA isoform was likewise abundantly expressed in the HEK cell line. The stability and activity of the inhibitors were tested in HEK 293T cell extracts using mass spectrometry analysis. The evaluated set of compounds contained some of the identified cN-IIIB inhibitors: 4, 5, 5a, and 5d of varying inhibitory potencies as well as compound S16 with no inhibitory potency (negative control). Initially, we verified the stability of the compounds in the extracts. The LC–MS/MS analyses confirmed that all analyzed compounds were stable in the lysate for at least 60 min (Figure 9B). Then, we monitored the time-dependent degradation of heavy m^7GMP, deuterated within the methyl group ([^2H]-m^7GMP]) in the extracts, in the presence or absence of the evaluated compounds (100 µM each, Figure 9C).
A typical reaction contained 1 µL–40 µM (final concentrations 4 µM) of [^2H]m^7GMP and 9 µL cell extracts. […]
Chromatographic separation of nucleotides and their metabolites was achieved on a ZORBAX Eclipse Plus C18 analytical column (3.5 μm, 4.6 mm × 100 mm, Agilent) equipped with Eclipse Plus-C18 analytical guard column (5.0 μm, 4.6 × 12.5 mm). […] Then, the analytes in the HPLC eluate were monitored by MS in multiple reaction monitoring (MRM) mode. […]

Chain of mouse eIF4E (P63073 whole entry): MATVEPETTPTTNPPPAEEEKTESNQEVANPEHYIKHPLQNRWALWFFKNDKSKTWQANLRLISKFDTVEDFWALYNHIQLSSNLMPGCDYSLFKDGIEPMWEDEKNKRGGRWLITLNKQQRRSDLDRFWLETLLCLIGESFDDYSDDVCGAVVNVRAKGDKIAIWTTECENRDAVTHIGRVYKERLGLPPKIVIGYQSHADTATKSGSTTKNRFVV

For orientation: IC50 means the concentration that inhibits the measured activity by half. Read a low IC50 as greater potency in that assay. The EC50 is the concentration at which the effect is half-maximal. High values mean weaker potency, low ones greater potency. In assay [1], `Cc1cccc(C[n+]2cn([C@@H]3O[C@H](COP(=O)([O-])O)[C@@H](O)[C@H]3O)c3nc(N)[nH]c(=O)c32)c1` [Compound 5a] displayed an IC50 of 127 ± 35.6 µM. Also, in assay [2], the EC50 was determined as 22.6 ± 4.3 µM.

As for `C[n+]1cn([C@@H]2O[C@H](Cn3cc(CCP(=O)([O-])O)nn3)[C@@H](O)[C@H]2O)c2nc(N)[nH]c(=O)c21` [Compound S16], the “Inhibition of m7GMP decay in HEK 293T cell extract (in words)” value in assay [3] is reported as “almost complete decay of m^7GMP was observed within the first 50 min”.

Turning to `Nc1nc2c(c(=O)[nH]1)[n+](Cc1ccc(C(F)(F)F)cc1)cn2[C@@H]1O[C@H](COP(=O)([O-])O)[C@@H](O)[C@H]1O` [Compound 5g, 7-(4-Trifluoromethylbenzyl)guanosine 5’-Monophosphate], the IC50 in assay [1] was determined as 42.5 ± 8.3 µM. Also, in assay [1] (ratio of IC50 for cN-IIIB and IC50 for cN-IIIA), the “SI (cN-IIIB/cN-IIIA)” value was found to be 0.17. The “Affinity to eIF4E compared to m7GMP” value in assay [2] (comparison of EC50 values) is recorded as “at least two-fold lower affinity”. In assay [2], this compound registered an EC50 of 118 ± 66.4 µM. Besides, the “SI (cN-IIIB/eIF4E)” value in assay [2] (ratio of IC50 for cN-IIIB and EC50 for eIF4E) was determined as 0.06.

Regarding `Nc1nc2c(c(=O)[nH]1)[n+](Cc1ccccc1)cn2[C@@H]1O[C@H](COP(=O)([O-])O)[C@@H](O)[C@H]1O` [Compound 5], in assay [1], half-maximal inhibition (IC50) was put at 113 ± 38.5 µM.

`Nc1nc2c(c(=O)[nH]1)[n+](Cc1ccc(F)c(F)c1)cn2C1OC(COP(=O)([O-])O)C(O)C1O` (centres unmarked) [Compound 5d]: the IC50 in assay [1] was 106 ± 26.6 µM. For the same compound, in assay [2], the response was half-maximal at 39.9 ± 8.5 µM (EC50).
